# Source: patent US20260092085A1, “SYNTHETIC TRIPLEX PEPTIDE NUCLEIC ACID-BASED INHIBITORS FOR CANCER THERAPY” (University of Connecticut, priority 2022, published 2026)
# Tests used:
# SUDHL-2 tumors = experiment: Tumor growth in SUDHL-2 derived xenograft; type: in vivo, NSG mice; settings: SUDHL-2 xenograft, intratumoral, compared to Scr-γtcPNA-155 and PNA-155 control
# Experimental: Data represented as mean±standard error mean (SEM). Scr-γtcPNA-155 (n=4), PNA-155 (n=5), γtcPNA-155 (n=5), *p<0.05, **p<0.01, ***p<0.001, ****p<0.0001. Multiple t-tests one per row was used for statistical analysis.
# For SUDHL-2 xenografts, 1×10^7 SUDHL-2 cells suspended in RPMI-1640 medium were injected subcutaneously in the right and left flank of 6-week-old NSG mice. The mice developed a small bump in 2-3 weeks. When the tumor volume reached 100-200 mm^3, the mice were randomly allocated to the treatment group (n=5 per group).
# Further, we corroborated our results in the SUDHL-2 derived xenograft mouse model. We injected the SUDHL-2 cells in the right and left flank of mice. After 14-21 days, when the tumor volume reached 100-200 mm3, the mice were randomized into three treatment groups based on uniform tumor volume distribution in each group. […] (FIG. 27)
# Mcl-1 and Caspase-3 = experiment: Western blot of Mcl-1 and Caspase-3 in U2932 cells; type: cell-based, human; settings: U2932, 500 nM
# Experimental: FIGS. 3A-F show cell culture-based functional assay in U2932 lymphoma cells. (3A) γtcPNA-155-TAMRA uptake in the U2932 lymphoma cell line: Representative flow cytometry traces of TAMRA fluorescence in U2932 cells after treatment with 500 nM dose of γtcPNA-155-TAMRA for 48 hours. The data was analyzed by FlowJo software. (3B) Normalized miR-155 gene expression levels in U2932 after treatment with phosphate buffer saline (PBS) as a control and with 500 nM dose of Scr-γtcPNA-155, PNA-155, γPNA-155 and γtcPNA-155 for 48 hours compared to average control U6 (n=3), data represented as mean±standard error mean (SEM), Statistical analysis was performed using Unpaired two-tailed t-test. […] (3E) Representative western blot of Mcl-1 and its quantification (n=3 technical replicate) and (3F) Caspase-3 protein and its quantification (n=3 technical replicate) in U2932 cell line after treatment with 500 nM of Scr-γtcPNA-155, PNA-155 and γtcPNA-155 for 48 hours. […] Numbers above western blot panels represent relative quantification of the respective bands using ImageJ software and normalized relative to loading control and treatment control.
# FIGS. 5A-B show representative western blot of Mcl-1 (5A) and Caspase-3 (5B) and its quantification (n=3) obtained from U2932 cell line after treatment with 500 nM of Scr-γtcPNA-155, γPNA-155 and γtcPNA-155 for 48 hours. […]
substance,measurement,setting,value
"γtcPNA-155: serine gamma tail-clamp anti-miR-155 PNA, RR-TJJJJ-OOO-ACCCCTATCACGATTAGCATTAA-RR, SEQ ID NO: 3 (all peptide nucleic acid (PNA); serine gamma PNA, tail-clamp TJJJJ via linkers, Arg-Arg at both ends)",tumor growth,SUDHL-2 tumors,reduced the tumor growth
same,downregulation of Mcl-1 protein (western blot),Mcl-1 and Caspase-3,50%
same,upregulation of Caspase-3 protein (western blot),Mcl-1 and Caspase-3,80%
